# How the values were obtained:
# 15-PGDH in A549 cells = target: T1, 15-PGDH in A549 cells (Homo sapiens, UniProt P15428); assay: A549 cellular 15-PGDH assay (PGE2 accumulation, HTRF); format: cell-based; settings: interleukin-stimulated, inhibitor 24 hrs, PGE2 by competitive HTRF, read-out: A549 Cell Assay IC50
# T1 construct: endogenous in cells; host or cells: A549
# T1 sequence (P15428 1-266): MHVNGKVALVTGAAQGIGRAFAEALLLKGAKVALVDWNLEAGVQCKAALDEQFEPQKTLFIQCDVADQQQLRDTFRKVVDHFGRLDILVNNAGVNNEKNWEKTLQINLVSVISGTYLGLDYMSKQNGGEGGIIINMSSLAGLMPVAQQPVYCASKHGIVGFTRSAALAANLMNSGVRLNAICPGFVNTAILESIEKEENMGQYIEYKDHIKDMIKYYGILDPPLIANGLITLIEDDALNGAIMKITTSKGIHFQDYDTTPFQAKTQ
# How it was run: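 Supernatant PGE2 was quantified by competitive HTRF, in which sample PGE2 blocks FRET between a europium cryptate-labelled antibody and labelled PGE2. It came from A549 epithelial cells induced with IL-13. IC50s were calculated from the inversely proportional signal.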
# [1] = target: T2, human recombinant 15-PGDH (Homo sapiens, UniProt P15428); assay: Recombinant 15-PGDH enzymatic inhibition assay (PGDH-Lumi, NADH signal); format: biochemical; settings: recombinant 15-PGDH; 15 min pre-incubation, 60 min reaction with PGE2 and NAD+, NADH signal
# T2 sequence (P15428 1-266): T1 sequence (P15428 1-266)
# How it was run: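 Buffer 50 mM Tris pH 7.5 with 0.01% Tween-20 and […]; compound, 22 two-fold dilutions, pre-incubated with enzyme 15 min before substrate.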
SMILES,IC50 (15-PGDH in A549 cells) [nM],IC50 [1] [nM]
"Cn1nnc2cc(-c3ncc4cc([C@]5(O)C[C@@](C)(C#N)C5)sc4n3)cnc21 (single isomer, unassigned) [Compound C98C, cis-3-hydroxy-1-methyl-3-(2-(3-methyl-3H-[1,2,3]triazolo[4,5-b]pyridin-6-yl)thieno[2,3-d]pyrimidin-6-yl)cyclobutanecarbonitrile]",18.7,8.69
"Cn1nnc2cc(-c3ncc4cc([C@]5(O)C[C@](C)(C#N)C5)sc4n3)cnc21 (single isomer, unassigned) [Compound C98T, trans-3-hydroxy-1-methyl-3-(2-(3-methyl-3H-[1,2,3]triazolo[4,5-b]pyridin-6-yl)thieno[2,3-d]pyrimidin-6-yl)cyclobutanecarbonitrile]",2.66,1.73
"CO[C@]1(C)C[C@@](O)(c2cc3ccc(-c4cnc5c(c4)nnn5C)nc3s2)C1 (single isomer, unassigned) [Compound C102C, cis-3-methoxy-3-methyl-1-(6-(3-methyl-3H-[1,2,3]triazolo[4,5-b]pyridin-6-yl)thieno[2,3-b]pyridin-2-yl)cyclobutanol]",2.53,0.971
"CO[C@]1(C)C[C@](O)(c2cc3ccc(-c4cnc5c(c4)nnn5C)nc3s2)C1 (single isomer, unassigned) [Compound C102T, trans-3-methoxy-3-methyl-1-(6-(3-methyl-3H-[1,2,3]triazolo[4,5-b]pyridin-6-yl)thieno[2,3-b]pyridin-2-yl)cyclobutanol]",5.77,1.65
"Cn1nnc2cc(-c3ccc4cc([C@]5(O)C[C@@](C)(C#N)C5)sc4n3)cnc21 (single isomer, unassigned) [Compound C104C, cis-3-hydroxy-1-methyl-3-(6-(3-methyl-3H-[1,2,3]triazolo[4,5-b]pyridin-6-yl)thieno[2,3-b]pyridin-2-yl)cyclobutanecarbonitrile]",11.3,3.88
"Cn1nnc2cc(-c3ccc4cc([C@]5(O)C[C@](C)(C#N)C5)sc4n3)cnc21 (single isomer, unassigned) [Compound C104T, trans-3-hydroxy-1-methyl-3-(6-(3-methyl-3H-[1,2,3]triazolo[4,5-b]pyridin-6-yl)thieno[2,3-b]pyridin-2-yl)cyclobutanecarbonitrile]",1.44,0.515
"Cn1cc2cc(-c3ccc4sc([C@]5(O)C[C@@](C)(C#N)C5)cc4n3)cnc2n1 (single isomer, unassigned) [Compound C106C, cis-3-hydroxy-1-methyl-3-(5-(2-methyl-2H-pyrazolo[3,4-b]pyridin-5-yl)thieno[3,2-b]pyridin-2-yl)cyclobutanecarbonitrile]",29.4,16.7
"Cn1cc2cc(-c3ccc4sc([C@]5(O)C[C@](C)(C#N)C5)cc4n3)cnc2n1 (single isomer, unassigned) [Compound C106T, trans-3-hydroxy-1-methyl-3-(5-(2-methyl-2H-pyrazolo[3,4-b]pyridin-5-yl)thieno[3,2-b]pyridin-2-yl)cyclobutanecarbonitrile]",45.2,24.2
"CO[C@]1(C(F)(F)F)C[C@@](O)(c2cc3cnc(-c4cnc5nn(C)cc5c4)nc3s2)C1 (single isomer, unassigned) [Compound C113C, cis-3-methoxy-1-(2-(2-methyl-2H-pyrazolo[3,4-b]pyridin-5-yl)thieno[2,3-d]pyrimidin-6-yl)-3-(trifluoromethyl)cyclobutanol]",7.19,1.42
"CO[C@]1(C(F)(F)F)C[C@](O)(c2cc3cnc(-c4cnc5nn(C)cc5c4)nc3s2)C1 (single isomer, unassigned) [Compound C113T, trans-3-methoxy-1-(2-(2-methyl-2H-pyrazolo[3,4-b]pyridin-5-yl)thieno[2,3-d]pyrimidin-6-yl)-3-(trifluoromethyl)cyclobutanol]",1.11,0.426
"Cn1cc2cc(-c3ncc4cc([C@]5(O)C[C@]6(CC6(F)F)C5)sc4n3)cnc2n1 (single isomer, unassigned) [Compound C114C, cis-1,1-difluoro-5-(2-(2-methyl-2H-pyrazolo[3,4-b]pyridin-5-yl)thieno[2,3-d]pyrimidin-6-yl)spiro[2.3]hexan-5-ol]",0.821,0.323
"Cn1cc2cc(-c3ncc4cc([C@]5(O)C[C@@]6(CC6(F)F)C5)sc4n3)cnc2n1 (single isomer, unassigned) [Compound C114T, trans-1,1-difluoro-5-(2-(2-methyl-2H-pyrazolo[3,4-b]pyridin-5-yl)thieno[2,3-d]pyrimidin-6-yl)spiro[2.3]hexan-5-ol]",0.669,0.488
"Cn1cc2cc(-c3ccc4nc([C@]5(O)C[C@]6(CC6(F)F)C5)sc4n3)cnc2n1 (single isomer, unassigned) [Compound C115C, cis-1,1-difluoro-5-(5-(2-methyl-2H-pyrazolo[3,4-b]pyridin-5-yl)[1,3]thiazolo[5,4-b]pyridin-2-yl)spiro[2.3]hexan-5-ol]",0.978,0.393
"Cn1cc2cc(-c3ccc4nc([C@]5(O)C[C@@]6(CC6(F)F)C5)sc4n3)cnc2n1 (single isomer, unassigned) [Compound C115T, trans-1,1-difluoro-5-(5-(2-methyl-2H-pyrazolo[3,4-b]pyridin-5-yl)[1,3]thiazolo[5,4-b]pyridin-2-yl)spiro[2.3]hexan-5-ol]",1.39,0.513
"CO[C@]1(C)C[C@@](O)(c2cc3cnc(-c4cnc5nn(C)cc5c4)nc3s2)C1 (single isomer, unassigned) [Compound C118C, cis-3-methoxy-3-methyl-1-(2-(2-methyl-2H-pyrazolo[3,4-b]pyridin-5-yl)thieno[2,3-d]pyrimidin-6-yl)cyclobutanol]",2.21,0.557
"CO[C@]1(C)C[C@](O)(c2cc3cnc(-c4cnc5nn(C)cc5c4)nc3s2)C1 (single isomer, unassigned) [Compound C118T]",2.73,0.864
"CO[C@]1(C)C[C@@](O)(c2cc3cnc(-c4cnc5c(c4)nnn5C)nc3s2)C1 (single isomer, unassigned) [Compound C121C]",23.8,10.4
"CO[C@]1(C)C[C@](O)(c2cc3cnc(-c4cnc5c(c4)nnn5C)nc3s2)C1 (single isomer, unassigned) [Compound C121T, trans-3-methoxy-3-methyl-1-(2-(3-methyl-3H-[1,2,3]triazolo[4,5-b]pyridin-6-yl)thieno[2,3-d]pyrimidin-6-yl)cyclobutanol]",13.4,6.52
"CO[C@]1(C)C[C@@](O)(c2nc3ccc(-c4cnc5nn(C)cc5c4)nc3s2)C1 (single isomer, unassigned) [Compound C125C, cis-3-methoxy-3-methyl-1-(5-(2-methyl-2H-pyrazolo[3,4-b]pyridin-5-yl)[1,3]thiazolo[5,4-b]pyridin-2-yl)cyclobutanol]",2.9,0.817
"CO[C@]1(C)C[C@](O)(c2nc3ccc(-c4cnc5nn(C)cc5c4)nc3s2)C1 (single isomer, unassigned) [Compound C125T, trans-3-methoxy-3-methyl-1-(5-(2-methyl-2H-pyrazolo[3,4-b]pyridin-5-yl)[1,3]thiazolo[5,4-b]pyridin-2-yl)cyclobutanol]",5.42,0.75
"Cn1cc2cc(-c3ccc4ccc([C@H](O)C5CC(F)(F)C5)cc4n3)cnc2n1 (single isomer, unassigned) [Compound D1R]",0.0822,0.605
"Cn1cc2cc(-c3ccc4ccc([C@@H](O)C5CC(F)(F)C5)cc4n3)cnc2n1 (single isomer, unassigned) [Compound D1S]",0.656,1.17
"Cn1nnc2cc(-c3ccc4ccc([C@H](O)C5CCOCC5)cc4n3)cnc21 (single isomer, unassigned) [Compound D3R]",289,21700
"Cn1nnc2cc(-c3ccc4ccc([C@@H](O)C5CCOCC5)cc4n3)cnc21 (single isomer, unassigned) [Compound D3S]",> 750,11500
"Cn1cc2cc(-c3ccc4ccc([C@H](O)C5CCOCC5)cc4n3)cnc2n1 (single isomer, unassigned) [Compound D4R]",187,243
"Cn1cc2cc(-c3ccc4ccc([C@@H](O)C5CCOCC5)cc4n3)cnc2n1 (single isomer, unassigned) [Compound D4S]",305,426
"Cn1cc2cc(-c3ccc4cc([C@H](O)C5CC(F)(F)C5)ccc4n3)cnc2n1 (single isomer, unassigned) [Compound D7R]",61.8,24.7
"Cn1cc2cc(-c3ccc4cc([C@@H](O)C5CC(F)(F)C5)ccc4n3)cnc2n1 (single isomer, unassigned) [Compound D7S]",168,265
"Cn1cc2cc(-c3cc(-c4ccnn4C)c4cc(C(O)C5CCC5)sc4n3)cnc2n1 (stereo not shown) [Compound B2, cyclobutyl(6-(2-methyl-2H-pyrazolo[3,4-b]pyridin-5-yl)-4-(1-methyl-1H-pyrazol-5-yl)thieno[2,3-b]pyridin-2-yl)methanol]",1.04,1.51

# Reference: patent US20240409557A1, “5,6-FUSED AND 6,6-FUSED BICYCLIC ALCOHOLS AND ETHERS AND COMPOSITIONS FOR USE AS 15-PROSTAGLANDIN DEHYDROGENASE MODULATORS” (AMGEN INC., priority 2023, published 2024)
